Experimental data as given in article PMC3210610, “Studies on Synthesis and Structure-Activity Relationship (SAR) of Derivatives of a New Natural Product from Marine Fungi as Inhibitors of Influenza Virus Neuraminidase” (Marine Drugs, 2011).

What was measured:
[1] = molecular target: neuraminidase (NA) of A/Guangdong/05/2009 (H1N1) (Influenza A virus (A/Managua/5248.03/2009(H1N1)), UniProt E0V7D1); details: 0.15 mM 4-MUNANA, MES pH 6.5, 4 mM CaCl2, 37 °C, 1 h preincubation; Figure 2 legend says chemiluminescence assay
[2] = molecular target: neuraminidase (NA) of A/GuangdongSB/01/2009 (H1N1) (Influenza A virus (A/Managua/5248.03/2009(H1N1)), UniProt E0V7D1); details: 0.15 mM 4-MUNANA, MES pH 6.5, 4 mM CaCl2, 37 °C, 1 h preincubation; Figure 2 legend says chemiluminescence assay

C=CCOc1cc(C=O)ccc1O [compound 15, 3-(allyloxy)-4-hydroxybenzaldehyde] gave an IC50 [1] of 25.1 µM and an IC50 [2] of 27 µM.
